In patent publication US7855194B2, “Pyrimidine, quinazoline, pteridine and triazine derivatives” (Hoffmann-La Roche Inc., priority 2006, dated 2010):

What follows are compounds tested against T1, human subtype 5 somatostatin receptor (Homo sapiens, UniProt P35346) (assay: SSTR5 radioligand binding assay (125I-labeled 11-Tyr somatostatin-14 tracer, membranes of transfected CHO cells)). Details: CHO cell membranes, Ki calculated from IC50 by Cheng-Prussoff equation.
T1 construct: host or cells: CHO cells, stably transfected; membranes prepared from them
Experimental: A CHO cell line stably transfected with a plasmid encoding the human subtype 5 somatostatin receptor (GenBank accession number D16827) was obtained from Euroscreen. Cells were cultured and used for binding and functional assays.
Membranes of these cells were prepared by sonication in the presence of protease inhibitors and subsequent fractionating centrifugation. The protein concentration in the membrane preparation was determined using a commercial kit (BCA kit, Pierce, USA). Membranes were stored at −80° C. until use. After thawing, membranes were diluted in assay buffer (50 mM Tris-HCl at pH 7.4, 5 mM MgCl2 and 0.20% BSA) and subjected to dounce homogenization.
For binding studies, 0.1 mL membrane suspension, corresponding to app. 6×10^−15 mol receptor, was incubated for 1 h at room temperature with 0.05 nM ^125I-labeled tracer (11-Tyr somatostatin-14, Perkin-Elmer) and either test compounds in varying concentrations or, for the determination of non-specific binding, 0.001 mM non-labeled somatostatin-14. The incubation was stopped by filtration through GF/B glassfiber filters and washing with ice-cold wash buffer (50 mM Tris-HCl at pH 7.4). The bound radioactivity was measured after application of a scintillation cocktail (Microscint 40) and expressed as disintegrations per minute (dpm).
The receptor concentration was determined in a prior saturation experiment where a fixed, arbitrary amount of membranes was incubated with a concentration range of radio-labeled tracer. This allows estimating the total number of specific binding sites per amount of protein (i.e., Bmax), typically between 1 and 5 pmol/mg.
The concentration of the test compound required to result in half maximal inhibition of binding of the radio-labeled tracer (IC50) was estimated from a concentration-versus-dpm graph. The binding affinity (Ki) was calculated from the IC50 by applying the Cheng-Prussoff equation for single binding sites.

T1 sequence (P35346 whole entry): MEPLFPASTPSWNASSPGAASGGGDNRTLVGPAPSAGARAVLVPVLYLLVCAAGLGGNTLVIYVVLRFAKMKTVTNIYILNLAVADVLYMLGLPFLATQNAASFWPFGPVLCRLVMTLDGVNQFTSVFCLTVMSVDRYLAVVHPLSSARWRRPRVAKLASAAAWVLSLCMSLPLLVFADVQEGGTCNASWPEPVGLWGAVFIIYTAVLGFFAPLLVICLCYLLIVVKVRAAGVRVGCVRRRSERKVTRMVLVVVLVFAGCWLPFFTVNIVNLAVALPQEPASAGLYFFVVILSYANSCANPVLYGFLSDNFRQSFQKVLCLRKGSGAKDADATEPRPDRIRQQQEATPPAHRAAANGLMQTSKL

Row | Ki | Compound
1 | 490 nM | CCOc1cc(CN2CCC(Nc3nc(N)c4cc(C)ccc4n3)CC2)ccc1OC [Example 8, N^2-[1-(3-Ethoxy-4-methoxy-benzyl)-piperidin-4-yl]-6-methyl-quinazoline-2,4-diamine]
2 | 6.4 nM | CCOc1cc(CN2CCC(Nc3ncc(C#N)c(N)n3)CC2)cc(OCOC)c1I [Example 137, 4-amino-2-[1-(3-ethoxy-4-iodo-5-methoxymethoxy-benzyl)-piperidin-4-ylamino]-pyrimidine-5-carbonitrile]
3 | 31 nM | CCOc1cc(CN2CCC(Nc3ncc(-c4ccc(OC)cc4)cn3)CC2)ccc1Cl [Example 161, [1-(4-chloro-3-ethoxy-benzyl)-piperidin-4-yl]-[5-(4-methoxy-phenyl)-pyrimidin-2-yl]-amine]
